These results are taken from US5705102A, “Photochromic spironaphthopyran compounds” (Vision-Ease Lens, Inc., priority 1995, dated 1998).

Data set [1] can be described thus: Determination of maximum absorption wavelength (λmax) after UV irradiation in solution. In kind it is physicochemical. The settings on record: for λmax: chloroform, irradiated with ultraviolet light with a maximum wavelength of 350 nanometers. How it is done: (§1) Each of the photochromic compounds (compound P) formed in step 2 of Examples 1-13 and Comparative Example 1 were independently dissolved in separate containers of chloroform. Additionally, a purchased sample of 3,3-diphenyl-naphtho-3H[2,1-b]pyran, identified as Comparative Example 2, was dissolved in a separate container of chloroform.
(§2) Each of the chloroform-dissolved photochromic compounds of Examples 1-13 and Comparative Examples 1-2 were then irradiated with ultraviolet light with a maximum wavelength of 350 nanometers and were measured for maximum absorption wavelength) λmax. The fade time, T1/2 was then determined for each of the irradiated compounds. The fade time for a particular chloroform dissolved photochromic compound is defined as the time interval, at room temperature (72° F.), for the absorbance of the activated form of the chloroform-dissolved photochromic compound to decrease to 1/2 of the maximum absorbance, after the photochromic compound is isolated from the activating source of ultraviolet light. The maximum absorption wavelength and fade time determined for each of the irradiated photochromic compounds of Examples 1-13 and Comparative Examples 1-2 are presented in Table 1: […]

Test in data set [2]: as above
Also noted: key: *: Fades too fast to obtain readings. Type of data set: physicochemical. The settings on record: cyclohexane.

A short description of data set [3]: Determination of fade time T1/2 after isolation from the activating UV light. Conditions: chloroform, room temperature (72° F.). In kind it is physicochemical. More on the design: key: *: Fades too fast to obtain readings. How it is done: as §1, §2
For data set [4] the following is noted: U.S. Pat. No. 3,567,605 to Becker; cited from earlier work.
Data set [5] can be described thus: Color of the compound or blend when activated by ultraviolet light. Type of data set: physicochemical.
The mark [6] stands for this setting: absorbance of activated form to decrease to 1/2 of maximum.

Each structure is given as a SMILES string.

With `COc1ccc2c3c(ccc2c1)OC(c1ccccc1)(c1ccccc1)C=C3` [Comparative Example 1, 3,3-diphenyl-8-methoxy-3H-naphtho[2,1-b]pyran, reference compound], the λmax in data set [1] is given as 472 Nanometers; in data set [2] it was 451 Nanometers. Moreover, the “T1/2 (fade time)” value in data set [3] (setting [6]) is 10 s.
For `C1=CC(c2ccccc2)(c2ccccc2)Oc2ccc3ccccc3c21` [Comparative Example 2, 3,3-diphenyl-naphtho-3H[2,1-b]pyran, reference compound], the λmax in data set [1] was found to be 435 Nanometers; in data set [2], 415 Nanometers. Further, the photochromism result in data set [4] is recorded as “photochromic at room temperature”. The “T1/2 (fade time)” value in data set [3] (setting [6]) was found to be 13 s.
For the compound `COc1ccc2c3c(ccc2c1)OC1(C=C3)c2ccccc2-c2ccccc21` [Example 1, 8-methoxyspiro(3H-naphtho [2,1-b]pyran-3,9'-fluorene)], the “color when activated by ultraviolet light” value in data set [5] is “deep shade of orange”. In data set [5] (blended with blue-turning photochromic compounds, such as substituted spiroindolino naphthoxazine), the “color of blend with blue-turning photochromic compounds when activated by ultraviolet radiation” value is on record as “desirable, intense shade of gray”. The figures for the λmax in data set [1] and in data set [2] were 492 Nanometers and 478 Nanometers, respectively. Also, the “activated maximum wavelength of absorption” value in data set [1] (dissolved in chloroform, irradiated with ultraviolet light) is given as “about 492 nanometers”. For the same compound, in data set [1] (vs 3,3-diphenyl-8-methoxy-3H-naphtho[2,1-b]pyran), the “maximum wavelength of activation, compared with Comparative Example 1” value is “longer maximum wavelength of activation”. Moreover, the “T1/2 (fade time)” value in data set [3] (setting [6]) was found to be 20 s.
Regarding `COc1ccc2c3c(ccc2c1)OC1(C=C3)CCCc2ccccc21` (stereo not drawn) [Example 2, 8-methoxyspiro(3H-naphtho[2,1-b]pyran-3,1'-tetralone)], the λmax in data set [1] is listed as 474 Nanometers; in data set [2], 465 Nanometers. In addition, in data set [3] (setting [6]), the “T1/2 (fade time)” value came to 15 s.
In the case of `COc1ccc2c3c(ccc2c1)OC1(C=C3)CCCc2cc(OC)c(OC)cc21` (stereo not drawn) [Example 3, 6',7'-dimethoxy-8-methoxyspiro(3H-naphtho[2,1-b]pyran-3,1'-tetralone)], the λmax is 445 Nanometers in data set [1] and “*” in data set [2] (symbol, no reading). The “T1/2 (fade time)” value in data set [3] (symbol, no reading) is “*”.
Compound `COc1ccc2c3c(ccc2c1)OC1(C=C3)c2ccccc2CC(c2ccccc2)C1c1ccccc1` (stereo not drawn) [Example 5] came in with a λmax in data set [1] of 476 Nanometers. Besides, the “T1/2 (fade time)” value in data set [3] (setting [6]) was 13 s.
Regarding `COc1ccc2c3c(ccc2c1)OC1(C=C3)c2ccccc2CCC1C` (stereo not drawn) [Example 6, 2'-methyl-8-methoxyspiro(3H-naphtho[2,1-b]pyran-3,1'-tetralone)], the λmax in data set [1] worked out at 468 Nanometers. In data set [3] (setting [6]), the “T1/2 (fade time)” value was 1.2 s.
As for `COc1ccc2c3c(ccc2c1)OC1(C=C3)c2ccccc2CC1C` (stereo not drawn) [Example 7, 2'-methyl-8-methoxyspiro(3H-naphtho[2,1-b]pyran-3,1'-indan)], the λmax in data set [1] came to 478 Nanometers. In data set [3] (setting [6]), the “T1/2 (fade time)” value was determined as 396 s.
As to `COc1ccc2c3c(ccc2c1)OC1(C=C3)C(c2ccccc2)=C(c2ccccc2)c2ccccc21` (stereo not drawn) [Example 8, 2',3'-diphenyl-8-methoxyspiro(3H-naphtho[2,1-b]pyran-3,1'-indene)], the λmax in data set [1] is 512 Nanometers. Besides, in data set [3] (setting [6]), the “T1/2 (fade time)” value worked out at 64 s.
`C1=CC2(Oc3ccc4ccccc4c31)c1ccccc1-c1ccccc12` [Example 9, spiro(3H-naphtho[2,1-b]pyran-3,9'-fluorene)]: the λmax in data set [1] is on record as 445 Nanometers; in data set [2] it was 438 Nanometers. Besides, in data set [1] (vs 3,3-diphenyl-naphtho-3H[2,1-b]pyran), the “maximum wavelengths of activation, compared with Comparative Example 2” value was “longer maximum wavelengths of activation”. Moreover, the “T1/2 (fade time)” value in data set [3] (setting [6]) was found to be 10 s.
In turn, `CC1CCc2ccccc2C12C=Cc1c(ccc3ccccc13)O2` (stereo not drawn) [Example 11, 2'-methylspiro(3H-naphtho[2,1-b]pyran-3,1'-tetralone)] gave a λmax in data set [1] of 444 Nanometers. Also, the “T1/2 (fade time)” value in data set [3] (symbol, no reading) was “*”.
For the compound `C1=CC2(Oc3ccc4ccccc4c31)C(c1ccccc1)=C(c1ccccc1)c1ccccc12` (stereo not drawn) [Example 13], in data set [1], the λmax worked out at 454 Nanometers. In data set [3] (setting [6]), the “T1/2 (fade time)” value is 35 s.
